Holding throughout (format): cell-based, zebrafish (Danio rerio)
Series [1] concerns AhR transcription factor activation (AhR/ARNT/XRE pathway). The experiment in a line: AhR-responsive transient dual luciferase reporter gene (DLR) assay in ZFL cells. The following applies: for LOEC: TCDD exposure 24 h; for EC20 (normalized): 4PL regression. How it is done: (§1) ZFL cells were seeded either into white, clear-bottom 96-well microtiter plates (Corning, New York, USA; for DLR assays) or transparent 96-well microtiter plates (Corning, New York, USA; for viability assays) at a density of 1.5 × 10^5 cells/mL, in 100 μL/well. After 24 h of incubation, cells reached a confluence of about 80%.
(§2) The transient transfection was conducted in a 2-μg transfection reagent to 1 μg plasmid DNA ratio, applying the XHP transfection reagent (Roche, Mannheim, Germany). Specific transfection optimization experiments were reported priory (Lungu-Mitea et al. [2018]). The transient transfection reaction was incubated as a co-transfection in a 10:1 reporter to control ratio (0.9 μg reporter plasmid, 0.1 μg control plasmid) for 30 min, before adding the reaction mixture to the cells. Firefly luciferase-bearing vectors were used as the primary reporter plasmids, and Renilla luciferase-bearing vectors were used for normalization (control plasmid). Ten microliter per well of the transfection reaction mix was added to the cells and incubated for 24 h. Following (Lungu-Mitea and Lundqvist [2020]), cells used in both DLR and viability assays were transiently transfected.
(§3) Prepared aliquots of stock solutions were thawed and further titrated using the nutrition medium supplemented with 5‰ (v/v) DMSO as a solvent. […] Different exposure regimes were applied. […] All potential co-transfection combinations were screened in this initial approach. […] Further, cells transfected with candidate plasmid combinations were subjected to a TCDD exposure regime from 100 pM to 100 nM (0.1, 0.3, 1, 3, 10, 30, 100 nM). Cells were exposed in 100 μL/well of the specifically spiked nutrition medium. Solvent controls (negative controls) were conducted in six replicates for every specific experiment.
(§4) After 24 h of exposure to AhR-agonists, cells on white 96-well microtiter plates were lysed in 20-μL passive lysis buffer (PLB; Promega, Madison, USA), and quantitative AhR-dependent luminescence was measured via Dual-Luciferase® Reporter Assay (DLR; Promega, Madison, USA), according to the manufacturer’s protocol using an auto-injecting Infinite M1000 microplate reader (Tecan, Männedorf, Switzerland), following a flash luminescence protocol. The luciferase activity was normalized to transfection efficiency (Firefly raw light unit readout divided by Renilla raw light unit readout) and further expressed as fold change compared to the non-treated controls.
(§5) In terms of the NOEC/LOEC analyses, for both approaches (DLR and viability), mean background values (blanks) were subtracted from the raw values, and the data was computed as fold induction in relation to the negative controls. Means of every experiment were pooled (experimental unit n = 3–5; observational unit N = 9–15). Normality was tested by Shapiro–Wilk and Kolmogorov–Smirnov tests (both significance level alpha = 0.05) and analyzed graphically via normal-qq-plot. Non-normal data were log-transformed and re-analyzed. Given normality, statistically differing significance in the output signal from the negative controls was assessed via one-way ANOVA, followed by Dunnett’s post hoc test (for multiple comparisons vs. control). Residuals were graphically analyzed by quantile–quantile plot (actual vs. predicted residuals), homoscedasticity plot (absolute residuals vs. fitted), and residual plot (residuals vs. fitted) to ensure ANOVA criteria were met. Further, Brown–Forsythe and Bartlett’s tests were conducted to check for the residuals’ homoscedasticity and normality. Beyond statistical significance, for all viability tests, a threshold of 80% as compared to the negative control (corresponding 0.8) was determined as biologically significant and marked with a dotted red line within all respective graphs. […]

The subject of series [2] is AhR (AhR/ARNT/XRE pathway). The series is described as above. To be noted: zebrafish, TCDD exposure, 4PL regression. How it is done:
as §1, §2, §3, §4, §5

Another series deals with ZFL cells. The experiment in a line: MTS/BCA-multiplex viability assay on transiently transfected ZFL cells. To be noted: TCDD 0.1-100 nM; pGudluc7.5 + pRL-null[zfEF1aPro] (Fig. S7). The method, then:
In parallel to the DLR assays, MTS/BCA-multiplex assays were conducted on identically treated cells. The MTS/BCA-multiplex assay, which is described in detail in (Lungu-Mitea et al. [2021]), scores NADPH-turnover and total protein amount as apical endpoints of cell viability or cytotoxicity. After 24 h exposure, the spiked nutrition medium was discharged, cells were washed once in 100 µL/well PBS, and 100 µL/well Earle’s Balanced Salt Solution (EBSS; Gibco, Paisley, UK) was added. MTS-based CellTiter 96® AQueous One Solution Cell Proliferation Assay (Promega, Madison, USA) was conducted following the manufacturer’s protocol. Seventeen percent (v/v) MTS reagent were added to the wells. After 2 h of incubation at 28 °C and atmospherical CO2, formazan product turnover absorbance was measured at 490 nm using an Infinite M1000 microplate reader. Afterwards, EBSS and MTS reagents were removed. Cells were washed once in 100 µL/well PBS and lysed in 20-µL PLB at RT for 30 min. Bicinchoninic Acid Protein Assay (BCA, Sigma-Aldrich, St. Louis, USA) was conducted following the manufacturer’s protocol. One hundred eighty microliters of BCA-reagent was added to every well, plates were agitated shortly, and incubated for 20 min at 60 °C. After cooling down for 15 min at RT, absorbance was measured at 562 nm using an Infinite M1000 microplate reader.
In terms of the NOEC/LOEC analyses, for both approaches (DLR and viability), mean background values (blanks) were subtracted from the raw values, and the data was computed as fold induction in relation to the negative controls. Means of every experiment were pooled (experimental unit n = 3–5; observational unit N = 9–15). Normality was tested by Shapiro–Wilk and Kolmogorov–Smirnov tests (both significance level alpha = 0.05) and analyzed graphically via normal-qq-plot. Non-normal data were log-transformed and re-analyzed. Given normality, statistically differing significance in the output signal from the negative controls was assessed via one-way ANOVA, followed by Dunnett’s post hoc test (for multiple comparisons vs. control). Residuals were graphically analyzed by quantile–quantile plot (actual vs. predicted residuals), homoscedasticity plot (absolute residuals vs. fitted), and residual plot (residuals vs. fitted) to ensure ANOVA criteria were met. Further, Brown–Forsythe and Bartlett’s tests were conducted to check for the residuals’ homoscedasticity and normality. Beyond statistical significance, for all viability tests, a threshold of 80% as compared to the negative control (corresponding 0.8) was determined as biologically significant and marked with a dotted red line within all respective graphs.

Like-named read-outs stand apart in the source and are kept apart here.

The term EC50 denotes the concentration that produces a half-maximal response.

On to `Clc1cc2c(cc1Cl)Oc1cc(Cl)c(Cl)cc1O2` [TCDD, 2,3,7,8-tetrachlorodibenzo-p-dioxin], for which the figures for the LOEC in series [1] (setup (d) pGL4.43 + pRL-null[zfEF1aPro]), in series [1] (setup (e) pGudLuc7.5 + pRL-null) and in series [1] (setup (f) pGudLuc7.5 + pGL4.70) were 0.1 nM, 1 nM and 1 nM, respectively. Moreover, the “EC20, all co-transfection setups” value in series [1] (TCDD exposure, all recorded within this range) is about 0.2 nM. Besides, the “plateau of relative induction” value in series [1] (TCDD exposure, pGudluc7.5 + pRL-null[zfEF1aPro] (Fig. 5A)) is “approximately 26 fold”. Moreover, the “EC20 (normalized)” value in series [1] (TCDD exposure, setup (d) pGL4.43 + pRL-null[zfEF1aPro]) stood at 0.282 nM; in series [1] (TCDD exposure, setup (e) pGudLuc7.5 + pRL-null), 0.245 nM; in series [1] (TCDD exposure, setup (f) pGudLuc7.5 + pGL4.70), 0.204 nM. Further, the EC50 at 24 h was 0.612 nM in series [2] (setup (a) pGL4.43 + pGL4.70, read-out: EC50 (normalized)); 0.595 nM in series [2] (setup (a) pGL4.43 + pGL4.70, read-out: EC50 (relative; non-normalized)); 2.7 nM in series [2] (setup (b) pGL4.43 + pRL-null, read-out: EC50 (normalized)); 1.31 nM in series [2] (setup (b) pGL4.43 + pRL-null, read-out: EC50 (relative; non-normalized)); 1.15 nM in series [2] (setup (c) pGudLuc7.5 + pRL-null[zfEF1aPro], read-out: EC50 (normalized)); 1.13 nM in series [2] (setup (c) pGudLuc7.5 + pRL-null[zfEF1aPro], read-out: EC50 (relative; non-normalized)). In addition, the EC50 at 24 h turned out to be 1.45 nM in series [2] (setup (d) pGL4.43 + pRL-null[zfEF1aPro], read-out: EC50 (normalized)); 0.877 nM in series [2] (setup (d) pGL4.43 + pRL-null[zfEF1aPro], read-out: EC50 (relative; non-normalized)); 0.661 nM in series [2] (setup (e) pGudLuc7.5 + pRL-null, read-out: EC50 (normalized)); 0.685 nM in series [2] (setup (e) pGudLuc7.5 + pRL-null, read-out: EC50 (relative; non-normalized)); 1.26 nM in series [2] (setup (f) pGudLuc7.5 + pGL4.70, read-out: EC50 (normalized)); 1.07 nM in series [2] (setup (f) pGudLuc7.5 + pGL4.70, read-out: EC50 (relative; non-normalized)). Besides, the “cytotoxicity (MTS)” value in the series with ZFL cells is listed as “none”.

The values above are taken from publication PMC10406726, “Development, scrutiny, and modulation of transient reporter gene assays of the xenobiotic metabolism pathway in zebrafish hepatocytes” (Cell Biology and Toxicology, 2021).
